Data as given in patent US11897875B2, “Deuterated Alpha5 subunit-selective negative allosteric modulators of gamma-aminobutyric acid type a receptors as fast acting treatment for depression and mood disorders” (UNIVERSITY OF MARYLAND, BALTIMORE, priority 2017, dated 2024).

Assays:
[1] = test system: naïve rats and rats subjected to 14 days of chronic multimodal stress; test: forced swim test; type: in vivo, rat; settings: for time the animals spent immobile / latency until the animals ceased to struggle and become immobile: NCGC-43 3 mg/kg or ketamine 20 mg/kg, 24 hours after injection; for time the animals spent immobile: vs stressed animals given vehicle (FIG. 6A); for latency until the animals ceased to struggle and become immobile: vs stressed animals given vehicle (FIG. 6B)
Excerpt: NCGC-43 and ketamine both exert an antidepressant-like response in this test. […] See also FIG. 6C and FIG. 6D.

[2] = test system: rats subjected to chronic multimodal stress; test: open field test; type: in vivo, rat; settings: 3 mg/kg
Description: FIG. 4A is a schematic of the open field test. […] Behavioral measurements were made before commencing stress (baseline), immediately after 14 days of chronic multimodal stress, and 24 hours after an injection of NCGC-43 (3 mg/kg) or vehicle (DMSO solution).

[3] = test system: rats subjected to chronic multimodal stress; test: social interaction test in rats after chronic multimodal stress; type: in vivo, rat; settings: single injection, NCGC-43 3 mg/kg or ketamine 20 mg/kg; 24 hours after injection
Description: […] In the social interaction test, rats were given a choice between spending time in a chamber with a novel caged juvenile rat and a chamber with an empty cage before commencing stress (baseline), immediately after 14 days of chronic multimodal stress, and 24 hours after an injection of NCGC-43 (3 mg/kg, gray), ketamine (20 mg/kg, orange), or vehicle (DMSO solution, blue). Social interaction computed as percent time spent with the novel animal. A control group received neither stress nor drug (yellow).

human liver hepatocytes = test: metabolic stability in human hepatocytes in vitro; type: in vitro ADME
Excerpt: (§1) Table 1, below, presents data regarding the half-life of […] in rat and human liver hepatocytes, in vitro, showing an increase in half-life for the deuterated compounds. Stability improved more in human hepatocytes compared to rat hepatocytes, with variation between the hepatocyte studies. […] Longer half-life also allows less frequent dosing. […] Deuteration preferably is located at the site of metabolism, since installing deuterium atoms at the site of metabolism more readily increases the half-life of the compound.

[4] = metabolic stability in rat hepatocytes in vitro; type: in vitro ADME; settings: rat liver hepatocytes
Excerpt: as §1

rat liver hepatocytes = test: metabolic stability in rat hepatocytes in vitro; type: in vitro ADME; settings: 3 hours
Excerpt: as §1

[5] = test system: rats subjected to chronic multimodal stress; test: sucrose preference test in rats under chronic multimodal stress; type: in vivo, rat; settings: for sucrose preference (sucrose solution consumed as percentage of total): single injection, NCGC-43 3 mg/kg or ketamine 20 mg/kg, 24 hours, 7 days, 14 days after injection, stress continued
Description: In the sucrose preference test, rats were given an overnight two bottle choice task (in which the sucrose solution consumption is shown as a percentage of the total solution consumed) before commencing stress (baseline), immediately after 14 days of chronic multimodal stress, and 24 hours, 7 days, and 14 days after an injection of NCGC-43 (3 mg/kg, gray), ketamine (20 mg/kg, orange), or vehicle (DMSO solution, blue), all while continuing with daily chronic multimodal stress. A control group received neither stress nor drug (yellow).

[6] = as a nootropic; cited from earlier work
[7] = metabolic stability in human hepatocytes in vitro; type: in vitro ADME; settings: human liver hepatocytes; human hepatocytes in vitro
Excerpt: as §1

[8] = test system: rats subjected to chronic multimodal stress; test: elevated plus maze; type: in vivo, rat; settings: NCGC-43 3 mg/kg or ketamine 20 mg/kg; 24 hours after injection
Description: In the elevated plus maze, rats were given a choice between spending time in one of two arms of an elevated cross-shaped maze (one arm closed and the other arm open), immediately after 14 days of chronic multimodal stress, and 24 hours after an injection of NCGC-43 (3 mg/kg) or ketamine (20 mg/kg). A control group was unstressed and received a vehicle injection (DMSO).

SMILES | time course of effect (responses at 1 hour and 24 hours) ([1]; 3 mg/kg, 1 hour vs 24 hours after injection) | time the animals spent immobile [1] | latency until the animals ceased to struggle and become immobile [1] | latency to immobility, dose-response ([1]; intraperitoneal, increasing doses, 1 or 24 hours after injection (FIG. 7)) | overall locomotor activity ([2]; 24 hours after injection (FIG. 4B)) | time spent in the corners and sides ([2]; 24 hours after injection (FIG. 4C)) | ratio of time spent in the center of the chamber to time spent in the corners/sides ([2]; 24 hours after injection (FIG. 4D)) | latency before the animals first entered the center of the chamber ([2]; 24 hours after injection (FIG. 4E)) | social interaction (percent time spent with the novel animal) [3] | Half-life (hours) (human liver hepatocytes; human hepatocytes in vitro) | Percentage Remaining at 3 Hours (human liver hepatocytes; human hepatocytes in vitro) | metabolic stability compared with non-deuterated RG-1662 (human liver hepatocytes; rat and human hepatocytes in vitro, improved more in human) | half-life [4] | Percentage Remaining at 3 Hours (rat liver hepatocytes) | antidepressant effects compared with ketamine ([5]; NCGC-43 3 mg/kg vs ketamine 20 mg/kg) | sucrose preference (sucrose solution consumed as percentage of total) [5] | efficacy in phase II clinical trials [6] | safety in phase II clinical trials [6] | half-life [7] | percent of time spent in the closed arm [8]
[2H]C([2H])([2H])c1onc(-c2ccc(F)cc2)c1COc1ccc(C(=O)N2CCS(=O)(=O)CC2)cn1 [NCGC-43, (1,1-dioxidothiomorpholino)(6-((3-(4-fluorophenyl)-5-(methyl-d3)isoxazol-4-yl)methoxy)pyridin-3-yl)methanone] | rapid and persistent effects similar to those described previously for ketamine | a decrease in the time the animals spent immobile | an increase in the latency | significant efficacy at 1 and 3 mg/kg | neither chronic stress nor injection of NCGC-43 or vehicle had any significant effects | neither chronic stress nor injection of NCGC-43 or vehicle had any significant effects | neither chronic stress nor injection of NCGC-43 or vehicle had any significant effects | mildly decreased the latency | restored their preference for interacting with a novel animal | Stable | 100% | more metabolically stable | 38.4 min | 3.9% | comparable to ketamine | restored sucrose preference in a rapid (within 24 hours) and persistent (up to 14 days) manner |  |  |  | 
Cc1onc(-c2ccc(F)cc2)c1COc1ccc(C(=O)N2CCS(=O)(=O)CC2)cn1 [RG-1662, (1,1-Dioxidothiomorpholino)(6-((3-(4-fluorophenyl)-5-methylisoxazol-4-yl)methoxy)pyridin-3-yl)methanone, reference compound] |  |  |  |  |  |  |  |  |  |  | 83.7% |  | 36 min | 3.3% |  |  | not efficacious | safe | 720 min | 
CNC1(c2ccccc2Cl)CCCCC1=O (stereo not drawn) [ketamine, reference compound] |  | a decrease in the time the animals spent immobile | an increase in the latency |  |  |  |  |  | restored their preference for interacting with a novel animal |  |  |  |  |  |  | restored sucrose preference in a rapid (within 24 hours) and persistent (up to 14 days) manner |  |  |  | increased the percent of time the rat spent in the closed arm
